Experiments:
Varroa mites [1] = experiment: whole plant or invertebrate; details: for mite mortality: 24 h; for statistically significant mite mortality (Kruskal-Wallis): at 24 h, 100 mg/mL, 250 mg/mL, 1 g/mL tested, 15, 30 or 45 min exposure
Experimental: Efficacy of 12 caffeic and ferulic acid/ester molecules (caffeic acid, ferulic acid, caffeic acid cinnamyl ester, caffeic acid phenethyl ester, caffeic acid 3-methyl-3-butenyl ester, caffeic acid 3-methyl-2-butenyl ester, caffeic acid benzyl ester, ferulic acid cinnamyl ester, ferulic acid phenethyl ester, ferulic acid 3-methyl-3-butenyl ester, ferulic acid 3-methyl-2-butenyl ester, ferulic acid benzyl ester) against Varroa mites in a laboratory assay was determined. Adult female mites were collected from a single honey bee colony by uncapping drone cells and removing the mites to avoid injury that might occur if other methods (e.g., sugar shake) were used. Mites lacking vigor were discarded prior to experiment. Varroa were removed from single-age pupae, randomized, and placed in groups of ten in a sealed chamber. They were left in an incubator with pupae. After a set amount of time, the Varroa were transferred to a chamber with a potential miticide. The effects of each miticide were evaluated both through contact and through vapor. Concentrations and contact time were also evaluated. The Varroa were then transferred back to their chamber in the incubator and checked for mortality (each experiment in triplicate). […] Treatments were tested for their efficacy in repelling and killing mites.
To test for contact-phase miticidal activity, 250 μl of each treatment was evenly applied to a Whatman No. 4 filter paper in a Petri dish. The paper was allowed to completely dry before the assay and then it was adhered to the bottom of the dish. Ten mites per treatment were placed directly on the filter paper and the mites were kept in the dish for either 15 min, 30 min, or 45 min. After the initial time period, all mites were transferred into a sterile Petri dish and maintained in an incubator for 30 h. Each hour the mites were removed and observed under a dissecting lens. Each treatment concentration and exposure period was repeated three times.
Statistical analysis for repellency was conducted on the mean number of mites repelled and was compared by a two-way ANOVA. […] Percent mortality was compared between treatments by a non-parametric Kruskal-Wallis test.

Varroa mites [2] = experiment: Example 2: mites exposed to filter paper impregnated with the caffeic ester family, mite mortality and activity; set-up: species or system Varroa destructor; details: assessed 6 h, 24 h, 30 h post exposure; various concentrations and exposure times
Experimental: In a series of assays, Whatman filter paper was impregnated with various concentrations of the caffeic ester family of molecules. Varroa mites were freshly harvested from brood frames and then directly exposed to the substrate. The exposure time was varied across different experiments. The Varroa mites were removed and placed into an incubator with pupae to feed on. Mite mortality and mite activity was assessed at several time points (6 h, 24 h, 30 h) post exposure.

| SMILES | mite mortality (Varroa mites [1]) | statistically significant mite mortality (Kruskal-Wallis) (Varroa mites [1]) | other results |
| --- | --- | --- | --- |
| O=C(/C=C/c1ccc(O)c(O)c1)OCC=Cc1ccccc1 [caffeic acid cinnamyl ester] | over 60% | – | – |
| O=C(/C=C/c1ccc(O)c(O)c1)OCCc1ccccc1 [caffeic acid phenethyl ester] | – | – | relative efficacy (mite mortality and activity) (Varroa mites [2]): most efficacious molecule tested |
| O=C(O)/C=C/c1ccc(O)c(O)c1 [caffeic acid] | – | all of the molecules except caffeic acid and ferulic acid showed statistically significant mite mortality | – |
| COc1cc(/C=C/C(=O)OCC=C(C)C)ccc1O [ferulic acid 3-methyl-2-butenyl ester] | over 60% | – | – |
| COc1cc(/C=C/C(=O)O)ccc1O [ferulic acid] | – | all of the molecules except caffeic acid and ferulic acid showed statistically significant mite mortality | – |
| Cc1ccc(C(C)C)c(O)c1 [thymol, reference compound] | – | – | mortality at 100000 µg/mL (Varroa mites [1]; Varroa destructor, 6 h, read-out: mortality (positive control)): 100% |
